What was measured:
[1] = Stability of compounds in D2O solution at room temperature, followed by 19F NMR and 1H NMR; format: physicochemical
Procedure: Compounds T-16 and T-18 were dissolved in D2O and the resulting solutions were kept at room temperature. The stability of the compound was studied by ^19F NMR and ^1H NMR.

[2] = test system: β-galactosidase expression (lacZ promoter); assay: Induction of β-galactosidase expression in E. coli (ONPG assay, OD420nm); format: cell-based, Escherichia coli; conditions: for effectiveness as inducer compared with IBCG / effectiveness as inducer compared with IPTG: during 3 h following the substrate addition; for induction of β-galactosidase expression/transcription: inducer 0.5 mM, until 3 hours after addition of ONPG substrate; for efficacy of induction overtime: up to 8 h following substrate addition
Procedure: (§1) The bacteria strain E. coli XL1—Blue MRF′ Electroporation-competent cells (Stratagene #200158) containing pGEM-T vector was grown in LB medium adding with appropriate antibiotic (ampicillin). The starter culture was grown by inoculating plasmid containing cells in LB medium added with ampicillin and incubated overnight at 37° C. with shaking at 250 rpm. When culture reached the desired OD, the induction was started.
For each assay the starter culture was appropriately diluted (OD600=0.2) in 1.5 mL of LB medium with 3 μg/mL of ampicillin
β-galactosidase expression is then induced by addition of either IPTG (Sigma I1284), IBCG or Compounds T-16 and T-18 to final concentrations of 0.5 or 1 mM. After this induction the cultures are incubated for 3 hours at 37° C. with shaking at 250 rpm.
The β-galactosidase activity was assayed by adding 0.5 mg/mL of the ortho 2-nitrophenyl-β-D-galactopyranoside (ONPG Sigma N1127) as chromogenic substrate. ONPG is hydrolyzed by β-galactosidase to yield galactose and ortho-Nitrophenol, which is yellow in color and absorbs light at 420 nm. The intensity of the color can be used to determine the β-galactosidase activity.
Absorbance was measured (OD420nm) every hour during 8 hours after the substrate addition. The absorbance was plotted as a function of time representing the induction kinetic of β-galactosidase activity for each inducer and each concentration tested. Assays were performed as triplicate.

E. coli culture = assay: Toxicity to bacteria (absorbance of bacteria culture, OD600nm); format: cell-based, Escherichia coli; conditions: 0.5 mM; for toxicity throughout the assay: 8 hours, versus negative control without inducer
Procedure: as §1
The absorbance of the bacteria culture was measured (OD600nm) every hour during 8 hours after the substrate addition. The absorbance was plotted as a function of time representing the toxicity for each inducer. The negative control (no toxicity) consists on an assay without inducer. Assays were performed as triplicate.

[3] = test system: expression of Green Fluorescent Protein UV (GFPuv) in BLR(DE3) E. coli; assay: Recombinant GFPuv protein production, total and soluble fractions (SDS-PAGE densitometry); format: cell-based, Escherichia coli; conditions: inducer 0.1 mM, 0.05 mM and 0.01 mM
Procedure: Properties: MW: 27 763 Da. Theoretical pI: 6.13—Theoretical Absorption coefficient: 0.788—Number of Cys: 2 Construction of One Expression Strain: • Construct GFPUV-pET30b/3 was transformed into BLR(DE3) E. coli expression strain. • Cultures were performed from one single colony in a semi-defined Riesenberg medium in order to produce a Research Cell Bank (20 tubes of 1 mL stored at <−70° C.). Pre-cultures and Cultures Conditions: • Pre-cultures and cultures were performed in semi-defined Riesenberg medium, 50 mL and 250 mL flasks-scale, respectively. […] Analysis by SDS-PAGE Stained by Coomassie Blue • Sample: 10 μl deposit of suspension at equivalent OD600nm=8. • The proteins were separated by SDS-PAGE 4-12%, and then colored by Coomassie blue. • Quantitative measurement by densitometry and comparison with standard range of proteins.
Quantity of proteins (μg) was plotted as a function of time representing the kinetic of induction of GFPuv expression for each inducer and/or concentration tested.
The induction profile of GFPuv was evaluated for both IPTG and T-18 inducers at different concentrations. […]

Compound | degradation in solution (stability by 19F NMR and 1H NMR) ([1]; 10 weeks follow up) | effectiveness as inducer compared with IBCG ([2]; 0.5 mM) | effectiveness as inducer compared with IPTG ([2]; 0.5 mM) | induction of β-galactosidase expression/transcription [2] | toxicity throughout the assay (E. coli culture) | degradation in solution (stability by 19F NMR and 1H NMR) ([1]; 24 weeks follow up) | final quantity of GFPuv produced (total fraction) compared with IPTG [3] | effectiveness relative to IPTG ([2]; 0.5 mM, 8 h following substrate addition) | efficacy of induction overtime ([2]; 0.5 mM) | toxicity compared with IPTG (E. coli culture; after 3 h up to 8 h following the substrate addition) | toxicity compared with IPTG (E. coli culture; until 3 h following the substrate addition)
CC(C)(O)C(F)(F)[C@@H]1O[C@H](CO)[C@H](O)[C@H](O)[C@H]1O [Compound T-16] | without any degradation | more effective inducers than IBCG | as effective inducers than IPTG | efficient inducers | medium toxicity | – | – | – | – | – | –
CC(C)C(F)(F)[C@@H]1O[C@H](CO)[C@H](O)[C@H](O)[C@H]1O [Compound T-18] | – | more effective inducers than IBCG | as effective inducers than IPTG | efficient inducers | – | without any degradation | higher than with IPTG | at least 3 times | remains effective overtime | less toxic than IPTG | as toxic as IPTG
CC(C)S[C@@H]1O[C@H](CO)[C@H](O)[C@H](O)[C@H]1O [IPTG, isopropyl-β-D -thiogalactopyranoside, reference compound] | – | – | – | – | medium toxicity | – | – | – | efficacy decrease | – | –

— patent US9062313B2, “Gem-difluorinated C-isopropylgalactoside derivates” (TFCHEM, priority 2011, dated 2015)
